# Structures can show the parent of a compound that is named as a salt.
# Target: T1, recombinant human MGAT2 enzyme (Homo sapiens, UniProt Q3SYC2)
# T1 construct: made in house; host or cells: CHO-K1 (Jump-In CHO-K1 Kit, Life Technologies); microsomal fraction used as the enzyme solution
# Experiment: Test for human MGAT2 activity inhibitory action (14C-oleoyl CoA, recombinant enzyme microsomes)
# Type: biochemical
# Parameters: key to Potency relative to Comparative Example 1 (higher = more potent): % inhibition = {1−(C−B)/(A−B)}×100, B = 10 μM Comparative Example 1
# Details: for IC50: Table 5, Examples 25 to 60, same method, read-out: IC50; for Potency relative to Comparative Example 1 (higher = more potent): Table 5, relative to Comparative Example 1 measured in the same run
# Experimental: The human MGAT2 gene described in Am. J. Physiol. Endocrinol. Metab. 285: E927-E937, 2003 was expressed using Jump-In™ CHO-K1 Kit (Life technologies) as described in the attached manual. The cells were suspended in a buffer containing Tris-hydrochloric acid (pH 7.4) at a final concentration of 1 mM, 1 mM ethylenediaminetetraacetic acid, 1 mM dithiothreitol, 250 mM sucrose, and complete protease inhibitor cocktail (Roche applied Science), and then disrupted using a Teflon homogenizer (AS ONE Corporation), followed by centrifugation at 130 g for 10 minutes. The supernatant was further centrifuged at 100,000 g for 1 hour to obtain a pellet as microsomes containing the recombinant enzyme, and a solution obtained by suspending this pellet at a protein concentration of about 800 to 1900 μg/ml was used as an MGAT recombinant enzyme solution.
# To a buffer containing 50 mM Tris-hydrochloric acid (pH 7.4), 6 mM magnesium chloride, and 2 mg/mL bovine serum albumin, a test compound was added, and the final concentration of dimethyl sulfoxide was adjusted to 0.3%. Moreover, 2-monooleoyl glycerol, oleoyl CoA, 1-^14C-oleoyl CoA (Perkin Elmer), and orlistat (SIGMA) were added at final concentrations of 50 μM, 50 μM, 2.2 μM, and 8.3 μM, respectively, followed by incubation at 37° C. for 10 minutes. After 10 minutes, the recombinant human MGAT2 enzyme solution was added at a final concentration of 0.67 μg/mL, and the reaction was started, with the amount of the reaction solution being 150 μl. The reaction was carried out at 37° C. for 30 minutes.
# After 30 minutes, the reaction was stopped by adding 300 μl of isopropanol:heptane:water=(80:20:2) to the reaction liquid. Further, 200 μl of heptane and 100 μl of water were added, followed by stirring. Then, 100 μl of the upper layer was transferred to a 96-well plate (Corning), and mixed with 100 μl of liquid scintillator (LumaSafe Plus, Lumac). Then, the ^14C count was quantitatively determined using TopCount NXT™ microplate scintillation luminescence counter (Perkin Elmer).
# The ^14C count in a case where no test compound was added was defined as A, the ^14C count in a case where 10 μM of the compound (Comparative Example 1) of Example No. 8 of WO2008/038768 was added was defined as B, and the ^14C count in the case where the test compound was added was taken as C. For this case, {1−(C−B)/(A−B)}×100(%) was calculated as the human MGAT2 activity inhibition ratio of the test compound (shown in the column named vs Comp. Ex. 1 in the following Table). A greater value of the “vs Comparative Example 1” means that the MGAT2 activity inhibitory action of the compound of Example was higher as compared to the MGAT2 activity inhibitory action of the compound of Comparative Example 1 (i.e., the human MGAT2 activity inhibition ratio was higher). […] Since this evaluation test was conducted for two separate groups, the test results of the two groups are shown separately in Table (First Test) and Table 4 (Second Test).
# Next, the compounds of Examples 25 to 60 of the present invention were also investigated for their pharmacological action by using the same method as in Examples 1 to 24. […] Note that, a comparative evaluation test against the compound of Comparative Example 1 was conducted for each of the compounds of Examples (in every measurement of the inhibitory activity of the compounds of Examples 25 to 60, the inhibitory activity of the compound of Comparative Example 1 was measured). The 50% inhibition concentrations of Comparative Example 1 in the measurement of the inhibitory activities of the compounds of Examples 25 to 60 were shown in Table 5 as “IC50 (nM) of Comparative Example 1.”
# T1 sequence (Q3SYC2 whole entry): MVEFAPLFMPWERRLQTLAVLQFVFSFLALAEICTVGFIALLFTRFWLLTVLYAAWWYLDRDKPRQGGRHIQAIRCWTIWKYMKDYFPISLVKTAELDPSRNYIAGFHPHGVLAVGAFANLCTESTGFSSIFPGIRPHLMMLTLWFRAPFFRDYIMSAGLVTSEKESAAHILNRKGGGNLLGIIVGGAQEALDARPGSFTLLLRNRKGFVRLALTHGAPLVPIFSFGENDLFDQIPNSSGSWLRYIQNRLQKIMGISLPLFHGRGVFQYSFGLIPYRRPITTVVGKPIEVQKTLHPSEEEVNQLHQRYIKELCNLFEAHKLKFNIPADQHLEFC
Structure (SMILES),IC50 [nM],Potency relative to Comparative Example 1 (higher = more potent)
"CC(C)[C@H](CNCCC(=O)N1CCc2nc(SC3CCC3)n(-c3ccccc3)c(=O)c2C1)Nc1ccc(Cl)cc1 [Example 40, 6-[3-[[(2R)-2-(4-chloroanilino)-3-methyl-butyl]amino]propanoyl]-2-cyclobutylsulfanyl-3-phenyl-7,8-dihydro-5H-pyrido[4,3-d]pyrimidin-4-one trifluoroacetate]",0.7,–
"C[C@@H](NCCC(=O)N1CCc2nc(SC3CCC3)n(-c3ccccc3)c(=O)c2C1)c1ccccc1 [Example 41, 2-cyclobutylsulfanyl-3-phenyl-6-[3-[[(1R)-1-phenylethyl]amino]propanoyl]-7,8-dihydro-5H-pyrido[4,3-d]pyrimidin-4-one trifluoroacetate]",1.1,–
"C[C@H](NCCC(=O)N1CCc2nc(SC3CCC3)n(-c3ccccc3)c(=O)c2C1)c1ccccc1 [Example 42, 2-cyclobutylsulfanyl-3-phenyl-6-[3-[[(1S)-1-phenylethyl]amino]propanoyl]-7,8-dihydro-5H-pyrido[4,3-d]pyrimidin-4-one trifluoroacetate]",1.2,–
"O=C(CCNC[C@H](O)c1ccc(F)cc1)N1CCc2nc(SC3CCC3)n(-c3ccccc3)c(=O)c2C1 [Example 43, 2-cyclobutylsulfanyl-6-[3-[[(2R)-2-(4-fluorophenyl)-2-hydroxy-ethyl]amino]propanoyl]-3-phenyl-7,8-dihydro-5H-pyrido[4,3-d]pyrimidin-4-one trifluoroacetate]",2.5,–
"O=C(CCNCC(O)COc1ccc(F)cc1)N1CCc2nc(SC3CCC3)n(-c3ccccc3)c(=O)c2C1 (stereo not shown) [Example 44, trifluoroacetate]",1.8,135
"O=C(CCNCC(O)COc1ccc(Cl)cc1)N1CCc2nc(SC3CCC3)n(-c3ccccc3)c(=O)c2C1 (stereo not shown) [Example 45, 6-[3-[[3-(4-chlorophenoxy)-2-hydroxy-propyl]amino]propanoyl]-2-cyclobutylsulfanyl-3-phenyl-7,8-dihydro-5H-pyrido[4,3-d]pyrimidin-4-one trifluoroacetate]",1.3,–
"O=C(CCNCCOc1ccc(F)cc1)N1CCc2nc(SC3CCC3)n(-c3ccccc3)c(=O)c2C1 [Example 46, 2-cyclobutylsulfanyl-6-[3-[2-(4-fluorophenoxy)ethylamino]propanoyl]-3-phenyl-7,8-dihydro-5H-pyrido[4,3-d]pyrimidin-4-one trifluoroacetate]",< 1,–
"O=C(CCNCCCOc1ccc(F)cc1)N1CCc2nc(SC3CCC3)n(-c3ccccc3)c(=O)c2C1 [Example 47, 2-cyclobutylsulfanyl-6-[3-[3-(4-fluorophenoxy)propylamino]propanoyl]-3-phenyl-7,8-dihydro-5H-pyrido[4,3-d]pyrimidin-4-one trifluoroacetate]",1.1,–
"O=C(CCNCCCCOc1ccc(F)cc1)N1CCc2nc(SC3CCC3)n(-c3ccccc3)c(=O)c2C1 [Example 48, 2-cyclobutylsulfanyl-6-[3-[4-(4-fluorophenoxy)butylamino]propanoyl]-3-phenyl-7,8-dihydro-5H-pyrido[4,3-d]pyrimidin-4-one trifluoroacetate]",< 1,>184
"O=C(CCNCCCCCOc1ccc(F)cc1)N1CCc2nc(SC3CCC3)n(-c3ccccc3)c(=O)c2C1 [Example 49, 2-cyclobutylsulfanyl-6-[3-[5-(4-fluorophenoxy)pentylamino]propanoyl]-3-phenyl-7,8-dihydro-5H-pyrido[4,3-d]pyrimidin-4-one trifluoroacetate]",< 1,>184
"O=C(CNCCCOc1ccc(F)cc1)N1CCc2nc(SC3CCC3)n(-c3ccccc3)c(=O)c2C1 [Example 50, 2-cyclobutylsulfanyl-6-[2-[3-(4-fluorophenoxy)propylamino]acetyl]-3-phenyl-7,8-dihydro-5H-pyrido[4,3-d]pyrimidin-4-one trifluoroacetate]",3.7,73
"O=C(CNCCOc1ccc(F)cc1)N1CCc2nc(SC3CCC3)n(-c3ccccc3)c(=O)c2C1 [Example 51, 2-cyclobutylsulfanyl-6-[2-[2-(4-fluorophenoxy)ethylamino]acetyl]-3-phenyl-7,8-dihydro-5H-pyrido[4,3-d]pyrimidin-4-one trifluoroacetate]",4.2,64
"O=C(CNCCCCOc1ccc(F)cc1)N1CCc2nc(SC3CCC3)n(-c3ccccc3)c(=O)c2C1 [Example 52, 2-cyclobutylsulfanyl-6-[2-[4-(4-fluorophenoxy)butylamino]acetyl]-3-phenyl-7,8-dihydro-5H-pyrido[4,3-d]pyrimidin-4-one trifluoroacetate]",1.7,158
"O=C(CNCCCCCOc1ccc(F)cc1)N1CCc2nc(SC3CCC3)n(-c3ccccc3)c(=O)c2C1 [Example 53, 2-cyclobutylsulfanyl-6-[2-[5-(4-fluorophenoxy)pentylamino]acetyl]-3-phenyl-7,8-dihydro-5H-pyrido[4,3-d]pyrimidin-4-one trifluoroacetate]",2,133
"O=C(CNCc1ccc(Oc2cccc(C(F)(F)F)c2)cc1)N1CCc2nc(SC3CCC3)n(-c3ccccc3)c(=O)c2C1 [Example 54, 2-cyclobutylsulfanyl-3-phenyl-6-[2-[[4-[3-(trifluoromethyl)phenoxy]phenyl]methylamino]acetyl]-7,8-dihydero-5H-pyrido[4,3-d]pyrimidin-4-one trifluoroacetate]",2.6,91
"O=C(CNCCCCCNc1ccc(C(F)(F)F)cc1)N1CCc2nc(SC3CCC3)n(-c3ccccc3)c(=O)c2C1 [Example 55, 2-cyclobutylsulfanyl-3-phenyl-6-[2-[5-[4-(trifluoromethyl)anilino]pentylamino]acetyl]-7,8-dihydro-5H-pyrido[4,3-d]pyrimidin-4-one trifluoroacetate]",< 1,>207
"O=C(CCNCc1nnc(Cc2ccc(C(F)(F)F)cc2)o1)N1CCc2nc(SC3CCC3)n(-c3ccccc3)c(=O)c2C1 [Example 56, 2-cyclobutylsulfanyl[-3-phenyl-6-[3-[5-[[4-(trifluoromethyl)phenyl]methyl]-1,3,4-oxadiazol-2-yl]methylamino]propanoyl]-7,8-dihydro-5H-pyrido[4,3-d]pyrimidin-4-one trifluoroacetate]",5.8,35
"O=C(CNCCCCCOC1CCCCC1)N1CCc2nc(SC3CCC3)n(-c3ccccc3)c(=O)c2C1 [Example 57, 2-cyclobutylsulfanyl-6-[2-[5-(cyclohexoxy)pentylamino]acetyl]-3-phenyl-7,8-dihydro-5H-pyrido[4,3-d]pyrimidin-4-one trifluoroacetate]",2.6,81
"O=C(CNCCCCCOC1CCC(F)(F)CC1)N1CCc2nc(SC3CCC3)n(-c3ccccc3)c(=O)c2C1 [Example 58, 2-cyclobutylsulfanyl-6-[2-[5-(4,4-difluorocyclohexoxy)pentylamino]acetyl]-3-phenyl-7,8-dihydro-5H-pyrido[4,3-d]pyrimidin-4-one trifluoroacetate]",3.3,63

# From patent US20150368242A1, “NOVEL TETRAHYDROPYRIDOPYRIMIDINONE DERIVATIVE” (Ajinomoto Co., Inc., priority 2013, published 2015)
